The text below walks through data of patent publication US10239832B2, “N-(1-hydroxy-3-(pyrrolidinyl)propan-2-yl)pyrrolidine-3-carboxamide derivatives as glucosylceramide synthase inhibitors” (BIOMARIN PHARMACEUTICAL INC., priority 2013, dated 2019).

Usually IC50 stands for the midpoint of a concentration-inhibition curve.

The target of the assay is T1, GCS (Canis lupus familiaris, UniProt A0A8I3MXG6).
T1 construct: endogenous in cells; host or cells: MDCK (Madin-Darby canine kidney) cells, whole-cell lysate
T1 sequence (A0A8I3MXG6 1-394): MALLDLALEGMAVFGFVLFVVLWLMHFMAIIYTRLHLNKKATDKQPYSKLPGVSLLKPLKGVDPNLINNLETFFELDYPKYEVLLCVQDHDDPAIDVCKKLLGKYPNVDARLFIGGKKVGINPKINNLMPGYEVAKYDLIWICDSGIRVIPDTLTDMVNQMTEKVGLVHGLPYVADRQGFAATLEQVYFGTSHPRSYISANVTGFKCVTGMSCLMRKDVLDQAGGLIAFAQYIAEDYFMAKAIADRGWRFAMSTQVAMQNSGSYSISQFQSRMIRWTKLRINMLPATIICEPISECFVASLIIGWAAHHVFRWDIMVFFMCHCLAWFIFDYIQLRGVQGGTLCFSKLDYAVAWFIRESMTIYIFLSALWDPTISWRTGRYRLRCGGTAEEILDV
Nature of the assay: GCS enzymatic assay (MDCK cell lysate, NBD-ceramide to glucosylceramide, LC/MS). The conditions noted are these: Table 2, the table does not say which of the assays; for Data Range (% inhibition): class symbols D, E, F, NA (not active); for IC50: class symbols A, B, C, read-out: Data Range (IC50 values). In kind it is biochemical, canine. The method, boiled down: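 IC50 or percent inhibition came from LC/MS/MS (ESI+, MRM) of NBD-ceramide and glucosylceramide, with tolbutamide as internal standard. The reaction used MDCK (canine) cell lysate as the enzyme source and was ended with acetonitrile. Mock wells received 0.1% DMSO.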

With `O=C(N[C@H](CN1CCCC1)[C@H](O)c1ccc2c(c1)OCCO2)[C@H]1CCN(c2cnc3cccnc3c2)C1` [Compound 90D, (S)-N-((1R,2R)-1-(2,3-dihydrobenzo[b][1,4]dioxin-6-yl)-1-hydroxy-3-(pyrrolidin-1-yl)propan-2-yl)-1-(1,5-naphthyridin-3-yl)pyrrolidine-3-carboxamide], the “Data Range (% inhibition)” value is “F (1-49% (or less than 50%))”.
As for `O=C(N[C@H](CN1CCCC1)[C@H](O)c1ccc(OC2CC2)c(Cl)c1)[C@@H]1CCN(c2ccc3ccsc3c2)C1` [Compound 91, (R)-1-(benzo[b]thiophen-6-yl)-N-((1R,2R)-1-(3-chloro-4-cyclopropoxyphenyl)-1-hydroxy-3-(pyrrolidin-1-yl)propan-2-yl)pyrrolidine-3-carboxamide], the IC50 is 1 to 30 nM.
The same measure, in the same setting: to `O=C(N[C@H](CN1CCCC1)[C@H](O)c1ccc(OC2CCOCC2)c(Cl)c1)[C@@H]1CCN(c2ccc3ccsc3c2)C1` [Compound 92, (R)-1-(benzo[b]thiophen-6-yl)-N-((1R,2R)-1-(3-chloro-4-((tetrahydro-2H-pyran-4-yl)oxy)phenyl)-1-hydroxy-3-(pyrrolidin-1-yl)propan-2-yl)pyrrolidine-3-carboxamide] belongs 1 to 30 nM; to `O=C(N[C@H](CN1CCCC1)[C@H](O)c1cc(F)c2c(c1)OCCO2)[C@@H]1CCN(c2ccc3c(c2)CCCC3)C1` [Compound 93, (R)-N-((1R,2R)-1-(8-fluoro-2,3-dihydrobenzo[b][1,4]dioxin-6-yl)-1-hydroxy-3-(pyrrolidin-1-yl)propan-2-yl)-1-(5,6,7,8-tetrahydronaphthalen-2-yl)pyrrolidine-3-carboxamide], 1 to 30 nM.
As to `O=C(N[C@H](CN1CCCC1)[C@H](O)c1cc(F)c2c(c1)OCCO2)[C@H]1CCN(c2ccc3c(c2)CCCC3)C1` [Compound 93A, (S)-N-((1R,2R)-1-(8-fluoro-2,3-dihydrobenzo[b][1,4]dioxin-6-yl)-1-hydroxy-3-(pyrrolidin-1-yl)propan-2-yl)-1-(5,6,7,8-tetrahydronaphthalen-2-yl)pyrrolidine-3-carboxamide], the “Data Range (% inhibition)” value is recorded as “E (50-74% (or less than 75%))”.
Consider `O=C(N[C@H](CN1CCCC1)[C@H](O)c1ccc(OC2CCOCC2)c(Cl)c1)[C@@H]1CCN(c2ccc3ccccc3c2)C1` [Compound 94, (R)-N-((1R,2R)-1-(3-chloro-4-((tetrahydro-2H-pyran-4-yl)oxy)phenyl)-1-hydroxy-3-(pyrrolidin-1-yl)propan-2-yl)-1-(naphthalen-2-yl)pyrrolidine-3-carboxamide], for which the IC50 is 1 to 30 nM.
Regarding `O=C(N[C@H](CN1CCC1)[C@H](O)c1ccc(OC2CC2)c(Cl)c1)[C@@H]1CCN(c2ccc3cc(F)ccc3c2)C1` [Compound 95, (R)-N-((1R,2R)-3-(azetidin-1-yl)-1-(3-chloro-4-cyclopropoxyphenyl)-1-hydroxypropan-2-yl)-1-(6-fluoronaphthalen-2-yl)pyrrolidine-3-carboxamide], the “Data Range (% inhibition)” value was “D (75-100%)”.
In the case of `O=C(N[C@H](CN1CCCC1)[C@H](O)c1ccc(OC2CC2)c(Cl)c1)[C@@H]1CCN(c2ccc(F)cc2)C1` [Compound 96, (R)-N-((1R,2R)-1-(3-chloro-4-cyclopropoxyphenyl)-1-hydroxy-3-(pyrrolidin-1-yl)propan-2-yl)-1-(4-fluorophenyl)pyrrolidine-3-carboxamide], the IC50 lay within 1 to 30 nM.
With `O=C(N[C@H](CN1CCCC1)[C@H](O)c1cc(F)c2c(c1)OCCO2)[C@@H]1CCN(c2ccc3ccsc3c2)C1` [Compound 97, (R)-1-(benzo[b]thiophen-6-yl)-N-((1R,2R)-1-(8-fluoro-2,3-dihydrobenzo[b][1,4]dioxin-6-yl)-1-hydroxy-3-(pyrrolidin-1-yl)propan-2-yl)pyrrolidine-3-carboxamide], the IC50 is 1 to 30 nM.
Take `O=C(N[C@H](CN1CCCC1)[C@H](O)c1cc(F)c2c(c1)OCCO2)[C@H]1CCN(c2ccc3ccsc3c2)C1` [Compound 97C, (S)-1-(benzo[b]thiophen-6-yl)-N-((1R,2R)-1-(8-fluoro-2,3-dihydrobenzo[b][1,4]dioxin-6-yl)-1-hydroxy-3-(pyrrolidin-1-yl)propan-2-yl)pyrrolidine-3-carboxamide]: the “Data Range (% inhibition)” value is listed as “E (50-74% (or less than 75%))”.
Take `O=C(N[C@H](CN1CCCC1)[C@H](O)c1ccc(OC2CC2)c(Cl)c1)[C@@H]1CCN(c2ccc3c(c2)CCCC3)C1` [Compound 98, (R)-N-((1R,2R)-1-(3-chloro-4-cyclopropoxyphenyl)-1-hydroxy-3-(pyrrolidin-1-yl)propan-2-yl)-1-(5,6,7,8-tetrahydronaphthalen-2-yl)pyrrolidine-3-carboxamide]: the “Data Range (% inhibition)” value was “D (75-100%)”.
On to `O=C(N[C@H](CN1CCCC1)[C@H](O)c1ccc(OC2CC2)c(Cl)c1)[C@H]1CCN(c2ccc3c(c2)CCCC3)C1` [Compound 98A, (S)-N-((1R,2R)-1-(3-chloro-4-cyclopropoxyphenyl)-1-hydroxy-3-(pyrrolidin-1-yl)propan-2-yl)-1-(5,6,7,8-tetrahydronaphthalen-2-yl)pyrrolidine-3-carboxamide], for which the “Data Range (% inhibition)” value is “F (1-49% (or less than 50%))”.
Consider `O=C(N[C@H](CN1CCCC1)[C@H](O)c1ccc2c(c1)OCCO2)[C@@H]1CCN(c2ccc3cc(Cl)ccc3n2)C1` [Compound 99, (R)-1-(6-chloroquinolin-2-yl)-N-((1R,2R)-1-(2,3-dihydrobenzo[b][1,4]dioxin-6-yl)-1-hydroxy-3-(pyrrolidin-1-yl)propan-2-yl)pyrrolidine-3-carboxamide], for which the half-maximal inhibitory concentration (IC50) was 1 to 30 nM.
In the case of `O=C(N[C@H](CN1CCCC1)[C@H](O)c1ccc2c(c1)OCCO2)C1CCN(c2ccc3cc(Cl)ccc3n2)C1` (stereo partly drawn) [Compound 99C, 1-(6-chloroquinolin-2-yl)-N-((1R,2R)-1-(2,3-dihydrobenzo[b][1,4]dioxin-6-yl)-1-hydroxy-3-(pyrrolidin-1-yl)propan-2-yl)pyrrolidine-3-carboxamide], the IC50 is 1 to 30 nM.
On to `O=C(N[C@H](CN1CCCC1)[C@H](O)c1ccc2c(c1)OCCO2)[C@H]1CCN(c2ccc3cc(Cl)ccc3n2)C1` [Compound 99D, (S)-1-(6-chloroquinolin-2-yl)-N-((1R,2R)-1-(2,3-dihydrobenzo[b][1,4]dioxin-6-yl)-1-hydroxy-3-(pyrrolidin-1-yl)propan-2-yl)pyrrolidine-3-carboxamide], for which the “Data Range (% inhibition)” value was “F (1-49% (or less than 50%))”.
Take `O=C(N[C@H](CN1CCCC1)[C@H](O)c1ccc(OC2CC2)c(Cl)c1)[C@@H]1CCN(c2ccc3cc(Cl)ccc3n2)C1` [Compound 100, (R)-N-((1R,2R)-1-(3-chloro-4-cyclopropoxyphenyl)-1-hydroxy-3-(pyrrolidin-1-yl)propan-2-yl)-1-(6-chloroquinolin-2-yl)pyrrolidine-3-carboxamide]: the IC50 was in the range of 1 to 30 nM.
`O=C(N[C@H](CN1CCCC1)[C@H](O)c1ccc(OC2CCOCC2)c(Cl)c1)[C@@H]1CCN(c2ccc3cc(Cl)sc3c2)C1` [Compound 101, (R)-N-((1R,2R)-1-(3-chloro-4-((tetrahydro-2H-pyran-4-yl)oxy)phenyl)-1-hydroxy-3-(pyrrolidin-1-yl)propan-2-yl)-1-(2-chlorobenzo[b]thiophen-6-yl)pyrrolidine-3-carboxamide]: the IC50 is 1 to 30 nM.
